Laboratory results reported in patent US20100152200A1, “[…] USES THEREOF” (priority 2008, published 2010).
Read-outs that look alike come from different tables or passages of the source.

Assays:
WEEV replicon pWR-LUC = test: organism not typed; type: cell-based
SINV = details: 12.5 µM
FMV [1] = type: cell-based, Fort Morgan virus (FMV) strain CM4-146
BSR-T7/5 cells = test: Toxicity studies (MTT or Alamar Blue cell viability) in the pWR-LUC:BSR-T7/5 system; details: for toxicity:activity (T:A) ratio (CC50/IC1050): pWR-LUC:BSR-T7/5 system
WEEV = type: cell-based, WEEV strain Cba87
FMV [2] = type: cell-based, Fort Morgan virus (FMV) strain CM4-146; remark: listed apart in the source
EEEV replicon = type: cell-based
VEEV replicon = type: cell-based
FMV [3] = tested on: FMV

Structure (SMILES) | suppression of fLUC expression (WEEV replicon pWR-LUC) | cell viability of SINV-infected cells (SINV) | suppression of infectious FMV production (FMV [1]) | cytotoxicity (in words) (BSR-T7/5 cells; FIG. 2 dose-response, BSR-T7/5 cells transfected with pWR-LUC) | toxicity:activity (T:A) ratio (CC50/IC1050) (BSR-T7/5 cells) | reduction of accumulation of viral RNAs encoding nsP2 or E1 (WEEV) | reduction of accumulation of viral RNAs encoding nsP2 or E1 (FMV [2]) | activity against EEEV replicon (in words) (EEEV replicon) | IC50 (WEEV replicon pWR-LUC; read-out: IC50) | activity against VEEV replicon (in words) (VEEV replicon) | concentration effectively suppressing FMV-induced CPE (lowest concentration tested) (FMV [3]) | cell viability of FMV-infected cells (FMV [3]; 12.5 µM) | IC50 (WEEV replicon pWR-LUC; BSR-T7/5)
COc1c(C)c2c(c(O)c1C/C=C(\C)CCC(=O)O)C(=O)OC2 [mycophenolic acid] | approximately 80% | – | – | – | – | – | – | – | – | – | – | – | –
O=C(NCc1ccco1)C1CCN(C(=O)c2cc3sccc3n2Cc2ccc(F)cc2)CC1 [Compound 32091] | – | 50% | > 90% | minimal cytotoxicity | greater than 20 | 80-90% | 80-90% | broad activity | 9.3 µM | broad activity | ≤ 3 µM | 70% | –
NC(=O)c1ncn([C@@H]2O[C@H](CO)[C@@H](O)[C@H]2O)n1 [ribavirin] | approximately 80% | – | – | – | 19 | – | – | – | – | – | – | – | 16 µM
